According to patent EP1216701A1, “Process to increase the concentration of meiosis-activating sterols (MAS) in the cholesterol synthesis and the use of potent inhibitors in the process” (Schering Aktiengesellschaft, priority 2000, dated 2002):

How the values were obtained:
Δ24-reductase = target: T1, Δ24-reductase (Homo sapiens, UniProt Q15392); test: Δ24-reductase assay (conversion of lanosterol to dihydrolanosterol in the presence of miconazole); type: cell-based; conditions: HepG2 cells; conversion of lanosterol to dihydrolanosterol with added miconazole
T1 construct: endogenous in cells; host or cells: HepG2
T1 sequence (Q15392 23-516): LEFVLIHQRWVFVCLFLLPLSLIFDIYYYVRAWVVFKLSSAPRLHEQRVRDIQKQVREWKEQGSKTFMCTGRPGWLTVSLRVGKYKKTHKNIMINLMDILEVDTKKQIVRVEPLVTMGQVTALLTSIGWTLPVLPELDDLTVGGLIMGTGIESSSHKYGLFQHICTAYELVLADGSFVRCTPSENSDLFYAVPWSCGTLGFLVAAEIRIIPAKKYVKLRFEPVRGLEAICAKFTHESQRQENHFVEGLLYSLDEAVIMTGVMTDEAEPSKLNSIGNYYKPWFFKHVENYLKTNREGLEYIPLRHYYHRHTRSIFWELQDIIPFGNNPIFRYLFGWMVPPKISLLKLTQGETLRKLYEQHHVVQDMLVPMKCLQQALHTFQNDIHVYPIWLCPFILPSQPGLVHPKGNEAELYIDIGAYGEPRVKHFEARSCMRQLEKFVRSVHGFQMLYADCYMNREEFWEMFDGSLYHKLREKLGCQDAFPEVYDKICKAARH
Experimental: HepG2 cells were incubated for 12 h with 10 µM simvastatin (a kind gift from M. Stapff (MSD, Germany)) to deplete cholesterol precursors. Thereafter, the medium was changed to one containing 10 µM simvastatin, 10 µM miconazole (an inhibitor of 14α-demethylation) and 6 µg/dish lanosterol. After 12 h incubation, neutral sterols were extracted as described above, and the samples were monitored for lanosterol (m/z 498 (M^+) and m/z 393 (M-TMSOH-CH3)) and dihydrolanosterol (m/z 500 (M^+) and m/z 395 (M-TMSOH-CH3)) by GC/MS. Dihydrolanosterol was quantified by comparing the ratio of SIM abundances at m/z 395 and 370 (epicoprostanol) against a standard curve constructed from SIM results on mixtures of authentic dihydrolanosterol and epicoprostanol. Desmosterol was quantified analogously by SIM.

HepG2 cells [1] = test: Accumulation of cholesterol precursors / C29-sterols (MAS) in HepG2 cells, GC/MS (SIM); type: cell-based, Human; conditions: HepG2 cells; for Dienol (m/z 486) / Enol T-MAS (m/z 484) / Trienol FF-MAS (m/z 482): ± SD; for suppression of the Δ24 reduction step (accumulation of desmosterol): absence of miconazole, 10 µM potent inhibitors or 1 µM tamoxifen for 12 h; for FF-MAS Dimethylst.-trien (482 m/z) / Methylst.-dien (470 m/z) / T-MAS Dimethylst.-dien (484 m/z): bile acids 160 µM, 12-h, mean ± SD, ratio to internal standard epicoprostanol
Experimental: (§1) Human hepatoma HepG2 cells were cultured to confluency in 60-mm dishes in phenol-red-free Dulbecco's modified Eagle's medium (DMEM) containing Pen-Strep (100 µg/ml), glucose (10 mM), sodium bicarbonate (45 mM) and glutamine (4 mM) supplemented with 10% fetal calf serum as described previously (24). At the beginning of the experiment the medium was changed to serum-free DMEM supplemented with 10% lipid-free "controlled process serum replacement" (CPSR-1). Compounds were added from ethanolic stock solutions to produce final ethanol concentrations of 0.1-0.3% v/v. Controls received the same amount of ethanol. Aminotriazole was added in an aqueous solution. Slices of rat testis (25 µm; 25-50 mg wet weight) were incubated under the same conditions in a shaking water bath (37°C). For isotopomer spectral analysis (ISA) of lathosterol, 1-^13C-acetate was added in an aqueous solution to a final concentration of 1 mM.
(§2) Cells were washed three times with ice cold PBS (pH 7.4) (once with 2 mg/ml BSA and twice with PBS alone). Epicoprostanol (1 µg in 50 µl of hexane) was added as internal standard to each sample. Sterols were extracted in hexane/isopropanol (3:2 v/v; two times with 4 ml). After drying under nitrogen and alkaline hydrolysis (1 N NaOH in 80% ethanol, 1.5 h at 70°C), the sterols were extracted with cyclohexane (two times with 3 ml). After drying under nitrogen, sterols were converted to their trimethylsilyl (TMS) derivatives by adding 100 µl bis(trimethylsilyl)trifluoracetamide (Pierce)/n-decane (1:1; v/v) and heating for 1 h at 70°C in a conical glass tube. This solution (1-2 µl) was used for gas-chromatography/mass-spectrometry (GC/MS). Rat testes (0.05-0.15 g) were homogenized manually, and lipids were extracted in hexane/isopropanol (3:2 v/v; two times with 4 ml). The extracts were deproteinized with acetone (3 ml) and processed as described above. The observed sterol levels in testis were normalized to correspond to 0.1 g of tissue (wet weight).
(§3) Gas-chromatography was done in the splitless mode with temperature programming as follows: 150°C for 1 min, followed by 20°C/min up to 260°C and 10°C/min up to 280°C (hold for 15 min). Mass spectral data were collected either in the full-scan mode (m/z 50-550) or by selective ion monitoring (SIM). For SIM analyses the electron multiplier voltage was raised by 300 V after the elution of lathosterol to increase the sensitivity of detection for lanosterol, dihydrolanosterol, methylsterols, dimethylsterols and plant sterols. The internal standard epicoprostanol was monitored at m/z 370. […] Peak integration was performed manually, and sterols were quantified from SIM analyses against the internal standard. Unless stated otherwise, MAS amounts are given as a percentage of the control.

liver slices = test: Influence of bile acids on methylsterols and dimethylsterols in liver slices; type: cell-based; conditions: bile acids 160 µM for 9-h, n=2 for UDCA, CDCA, DCA, n=3 for CA and LCA, ratio to campesterol
Experimental: as §2, §3

HepG2 cells [2] = test: Isotopomer spectral analysis (ISA) of flux of 13C-acetate to lathosterol and cholesterol; type: cell-based, Human; conditions: 10 µM, 12 h, 1 mM 1-13C-acetate
Experimental: as §1
Analyses were performed on a Hewlett-Packard GC/MS system (5890 series II GC interfaced to a 5971 mass selective detector) equipped with a DB-XLB column (30 m x 0.25 mm i.d. x 0.25 µm film; J&W). Gas-chromatography was done in the splitless mode with temperature programming as follows: 150°C for 1 min, followed by 20°C/min up to 260°C and 10°C/min up to 280°C (hold for 15 min). Mass spectral data were collected either in the full-scan mode (m/z 50-550) or by selective ion monitoring (SIM). For SIM analyses the electron multiplier voltage was raised by 300 V after the elution of lathosterol to increase the sensitivity of detection for lanosterol, dihydrolanosterol, methylsterols, dimethylsterols and plant sterols. The internal standard epicoprostanol was monitored at m/z 370. In unlabeled experiments, cholesterol precursors and plant sterols were monitored by the following ions: desmosterol (m/z 456; 441 and 351); Δ8-cholestenol (m/z 458); lathosterol (m/z 458); monounsaturated methylsterols (m/z 472); diunsaturated methylsterols (m/z 470); monounsaturated dimethylsterols (m/z 486); diunsaturated dimethylsterols (m/z 484); triunsaturated dimethylsterols (m/z 482); lanosterol (m/z 498 and 393) and dihydrolanosterol (m/z 500 and 395). Peak integration was performed manually, and sterols were quantified from SIM analyses against the internal standard. Unless stated otherwise, MAS amounts are given as a percentage of the control. When 1-^13C-acetate was used in the culture medium for ISA, up to 10 ions (M+0- M+10) were monitored for the TMS derivatives of lathosterol (m/z 458-468), T-MAS (m/z 484-494) and FF-MAS (m/z 482-492).
ISA was carried out as described previously (25) by incubating cells with 1-13C-acetate. The isotopomer distribution in sterols synthesized from 1-^13C-acetate provided the fractional synthesis rate g(t) of the product and the enrichment D of the labeled precursor pool. These parameters were calculated by nonlinear regression analysis as described previously (25,26). Because here we used the molecular ions containing the TMS group for the ISA calculations, the ISA program was modified to correct for the additional C, H and Si atoms from the derivatization reagent. Statistical differences were assessed by Student's t-test and considered significant for P<0.05.

[3] = Conc. 10 µM (combinations 10 + 10 µM), 12 h, n=2
[4] = aminotriazole 20000 µM, tamoxifen 1 µM, combination 20000 + 1 µM, incubation time not clearly stated
[5] = Conc. 1 µM (combinations 1 + 1 µM), 24 h, n=3

CC(=O)[C@@]1(O)CC[C@H]2[C@@H]3CC=C4C[C@@H](O)CC[C@]4(C)[C@H]3CC[C@@]21C [17α-OH-Pregnenolone, 17α-Hydroxy-pregnenolone] was tested, and the “order of suppression of Δ24 reduction” value (Δ24-reductase) was “pregnenolone > progesterone > 17α-OH-pregnenolone >> 17α-OH-progesterone”, the “Dienol (m/z 486)” value (HepG2 cells [1]; [3]) was 52 ± 6 % of control and the “Enol T-MAS (m/z 484)” value (HepG2 cells [1]; [3]) was 780 ± 57 % of control. For the same compound, the “Trienol FF-MAS (m/z 482)” value (HepG2 cells [1]; [3]) was 242 ± 19 % of control and the “suppression of the Δ24 reduction step (accumulation of desmosterol)” value (“suppression of the Δ24 reduction step” below) (HepG2 cells [1]) was “strongly suppressed”.
With Nc1nc[nH]n1 [Aminotriazole] the “Dienol (m/z 486)” value (HepG2 cells [1]; [4]) was 725 ± 65 % of control, the “Enol T-MAS (m/z 484)” value (HepG2 cells [1]; [4]) was 610 ± 20 % of control and the “Trienol FF-MAS (m/z 482)” value (HepG2 cells [1]; [4]) was 229 ± 18 % of control.
C[C@H](CCC(=O)O)[C@H]1CC[C@H]2[C@@H]3[C@H](O)C[C@@H]4C[C@H](O)CC[C@]4(C)[C@H]3CC[C@]12C [CDCA, Chenodeoxycholic acid] was tested, and the “FF-MAS Dimethylst.-trien (482 m/z)” value (liver slices) was 128 % of control, the “Methylst.-dien (470 m/z)” value (liver slices) was 181 % of control and the “T-MAS Dimethylst.-dien (484 m/z)” value (liver slices) was 296 % of control. For the same compound, the “FF-MAS Dimethylst.-trien (482 m/z)” value (HepG2 cells [1]; n=3) was 197 ± 10 % of control, the “Methylst.-dien (470 m/z)” value (HepG2 cells [1]; n=3) was 187 ± 5 % of control and the “T-MAS Dimethylst.-dien (484 m/z)” value (HepG2 cells [1]; n=3) was 234 ± 11 % of control.
In the case of C[C@H](CCC(=O)O)[C@H]1CC[C@H]2[C@@H]3CC[C@@H]4C[C@H](O)CC[C@]4(C)[C@H]3C[C@H](O)[C@]12C [DCA, Deoxycholic acid], the “FF-MAS Dimethylst.-trien (482 m/z)” value (liver slices) is reported as 103 % of control, the “Methylst.-dien (470 m/z)” value (liver slices) is reported as 144 % of control and the “T-MAS Dimethylst.-dien (484 m/z)” value (liver slices) is reported as 210 % of control. The “FF-MAS Dimethylst.-trien (482 m/z)” value (HepG2 cells [1]; n=3) was 226 ± 17 % of control, the “Methylst.-dien (470 m/z)” value (HepG2 cells [1]; n=3) was 211 ± 6 % of control and the “T-MAS Dimethylst.-dien (484 m/z)” value (HepG2 cells [1]; n=3) was 320 ± 32 % of control.
For C[C@H](CCC(=O)O)[C@H]1CC[C@H]2[C@@H]3CC[C@@H]4C[C@H](O)CC[C@]4(C)[C@H]3CC[C@]12C [LCA, Lithocholic acid], the “FF-MAS Dimethylst.-trien (482 m/z)” value (liver slices) was 91 % of control, the “Methylst.-dien (470 m/z)” value (liver slices) was 67 % of control and the “T-MAS Dimethylst.-dien (484 m/z)” value (liver slices) was 172 % of control. For the same compound, the “FF-MAS Dimethylst.-trien (482 m/z)” value (HepG2 cells [1]; n=3) was 453 ± 88 % of control, the “Methylst.-dien (470 m/z)” value (HepG2 cells [1]; n=3) was 459 ± 29 % of control and the “T-MAS Dimethylst.-dien (484 m/z)” value (HepG2 cells [1]; n=3) was 744 ± 155 % of control.
In the case of CC(=O)[C@H]1CC[C@H]2[C@@H]3CC=C4C[C@@H](O)CC[C@]4(C)[C@H]3CC[C@]12C [Pregnenolone], the “order of suppression of Δ24 reduction” value (Δ24-reductase) is reported as “pregnenolone > progesterone > 17α-OH-pregnenolone >> 17α-OH-progesterone”, the “Dienol (m/z 486)” value (HepG2 cells [1]; [5]) is reported as 110 ± 9 % of control and the “Enol T-MAS (m/z 484)” value (HepG2 cells [1]; [5]) is reported as 223 ± 11 % of control. For the same compound, the “Trienol FF-MAS (m/z 482)” value (HepG2 cells [1]; [5]) was 166 ± 28 % of control, the “Dienol (m/z 486)” value (HepG2 cells [1]; [3]) was 4 ± 1 % of control and the “Enol T-MAS (m/z 484)” value (HepG2 cells [1]; [3]) was 308 ± 40 % of control. The “Trienol FF-MAS (m/z 482)” value (HepG2 cells [1]; [3]) was 213 ± 15 % of control, the “suppression of the Δ24 reduction step” value (HepG2 cells [1]) was “strongly suppressed” and the “lowering of the total amount of lathosterol” value (HepG2 cells [2]) was “ca. 50%”. For the same compound, the “reduction of de novo lathosterol synthesis” value (HepG2 cells [2]) was “more than 60%”.
CC/C(=C(\c1ccccc1)c1ccc(OCCN(C)C)cc1)c1ccccc1 [Tamoxifen] was tested, and the “suppression of the Δ24 reduction step” value (HepG2 cells [1]) was “strongly suppressed”, the “Dienol (m/z 486)” value (HepG2 cells [1]; [4]) was 34 ± 3 % of control and the “Enol T-MAS (m/z 484)” value (HepG2 cells [1]; [4]) was 617 ± 47 % of control. For the same compound, the “Trienol FF-MAS (m/z 482)” value (HepG2 cells [1]; [4]) was 297 ± 41 % of control.
